The source of these data is patent US20170095565A1, “CHEMICALLY MODIFIED SMALL MOLECULES” (Nektar Therapeutics, priority 2003, published 2017).

Series [1] is described as follows: PEG-CIPRO absorption from lung after IT administration. The note with it: Cipro and PEG-Cipro. An excerpt:
In vivo absorption data was collected through rat studies, in which, following IT administration to rats, whole lungs were excised and analyzed for test article concentration.

Series [2] in a line: Lung residence after intratracheal administration (BAL, BAL cells, residual lung, serum). The series is classed as in vivo, rats. To be noted: for half-life: rat, other: intratracheal (IT), 30 μg. As for the experimental part:
To determine the effect of PEG length on residence time in the lung, a series of in vivo experiments was performed in which each PEG-FITC species was administered intratracheally (IT) to rats, and the amount remaining in the lung was determined at progressive time points. For each species, 30 μg PEG-FITC, prepared in PBS/0.5% BSA, was administered IT to rats (300 μL of a 100 μg/mL solution). […] Following the lavage, lungs were excised, and samples of serum were extracted. The resulting lavage solution was then centrifuged to pellet the cellular fraction (BAL cells) and separate it from the BAL supernatant.
Samples from BAL, BAL cells and serum were read directly in microtiter plates with no prior treatment. To quantitate PEG-FITC remaining in the residual lung material, however, the excised lungs were homogenized and PEG-FITC was extracted in ethanol.
For all samples, quantitation was performed by interpolation from a standard curve generated from known concentrations of the relevant molecule prepared in the correlating matrix. Thus for samples of BAL and BAL cells, the standard samples were prepared in 0.9% NaCl, for serum samples, the standards were prepared in commercially obtained rat serum, and for lung extracts, the standard samples were prepared in PBS: Ethanol (1:3).
For BAL studies, the total amount remaining was calculated for each animal from the product of the concentration and the BAL volume recorded. For BAL cells, the pellet was resuspended in 1 mL; the amount present was calculated accordingly. For residual lung tissue, the amount present in both lungs (μg/lung) was calculated from the product of the concentration and the homogenate volume. Note that although the nominal dose delivered in each experiment was 30 μg, the dosing solution was analyzed from the same standard curve for each experiment and the actual delivered dose was calculated. The data shown throughout this specification are thus corrected for each PEG-FITC species respectively and are represented as percentage dose administered. The doses delivered in each experiment are represented in Table VIII below.

The nature of series [3]: Cell-based permeability in Calu-3 cells. The note with it: human. In kind it is in vitro ADME.
Method: In vitro cell-based experiments (in a Calu-3 assay) were performed for PEG-FITC conjugates. The Calu-3 cells were cultured with an apical air-interface to mimic the in vivo epithelium.

The term Papp denotes the rate of passage across a membrane or cell layer, normalised by area and donor concentration. Read a low Papp as slow passage.

Counter-ions that a name gives are not always drawn. Like-named read-outs stand apart in the source and are kept apart here.

On to `O=C(O)c1cn(C2CC2)c2cc(N3CCNCC3)c(F)cc2c1=O` [Cipro HCl, ciprofloxacin], for which, in series [1], the “Elimination from lung (rat IT)” value was determined as 10.24 h⁻¹.
Take `O=C1OC2(c3ccc(O)cc3Oc3cc(O)ccc32)c2ccccc21` [Sodium fluorescein, sodium fluorescein]: the “Portion of dose associated with BAL cells” value in series [2] (10 min) is on record as “approximately 13%”. Besides, the “Dose recovered in BAL” value in series [2] (10 min following IT administration) is recorded as “less than 50%”. The “Serum peak as proportion of administered dose” value in series [2] (10 min post dose) is “less than 10%”. In addition, in series [2] (10 min post dose, based on rat serum volume of approximately 8 mL), the “Peak amount in serum” value was “approximately 2 μg”. Also, the “Dose recovered in combined lung-derived fractions” value in series [2] (10 min post-dose) is recorded as “less than 50%”. Besides, the “Elimination from lung (rat IT)” value in series [2] (fluorescein, PEG and PEG-FITC) was determined as 1.38 h⁻¹. Moreover, the BAL k-el in series [2] (rat IT, BAL supernatant) stood at 1.3253. Moreover, the “BAL t1/2-el” value in series [2] (rat IT, elimination half-life from BAL) was determined as 31.4 min. The half-life in series [2] (bronchoalveolar lavage (BAL) supernatant, rat IT, elimination half-life from BAL, read-out: BAL t1/2-el) was below 31.2 min; in series [2] (combined lung compartments, rat IT, combined lung compartments, read-out: Lung t1/2-el (converted)), 30.1 min. In series [2] (time at which 90% of the dose would be eliminated), the “BAL t90” value stood at 1.74 h. For the same compound, the “BAL t99” value in series [2] (time at which 99% of the dose would be eliminated) amounted to 3.5 h. In series [3], this compound returned a Papp of 0.34 ×10⁻⁶ cm/s.
